Laboratory results as given in paper PMC4168258 (Biochemical pharmacology, 2014).

What was measured:
[1] = mouse, in vivo, po, 40 mg/kg
[2] = cited from earlier work
[3] = cited from earlier work; remark: listed apart in the source
CYP2C9 = CYP2C9 (Homo sapiens, UniProt P11712); test: Kinetic study of metabolite formation by recombinant CYP2C9; settings: recombinant CYP2C9 incubations
CYP2C9, sequence (P11712 whole entry): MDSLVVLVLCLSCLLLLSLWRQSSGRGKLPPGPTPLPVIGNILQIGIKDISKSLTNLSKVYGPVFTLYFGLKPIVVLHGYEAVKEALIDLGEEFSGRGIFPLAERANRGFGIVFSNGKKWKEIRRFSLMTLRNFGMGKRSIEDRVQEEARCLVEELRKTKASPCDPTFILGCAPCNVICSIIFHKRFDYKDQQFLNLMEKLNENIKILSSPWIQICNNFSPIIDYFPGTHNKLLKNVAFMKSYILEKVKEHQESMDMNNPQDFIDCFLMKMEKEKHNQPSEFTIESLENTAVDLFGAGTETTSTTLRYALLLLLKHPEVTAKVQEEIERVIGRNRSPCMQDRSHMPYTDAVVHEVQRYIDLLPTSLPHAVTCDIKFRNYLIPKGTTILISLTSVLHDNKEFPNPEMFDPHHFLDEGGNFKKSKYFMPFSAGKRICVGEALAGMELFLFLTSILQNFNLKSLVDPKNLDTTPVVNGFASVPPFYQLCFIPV

O=C(C1CCC(O)CC1)N1CC(=O)N2CCc3ccccc3C2C1 (centres unmarked) [III, 4-OH PZQ]
Source (matrix in which detected) [1]: urine, feces

O=C(C1CCCCC1)N1CC(=O)N2CCc3ccccc3[C@H]2C1 [(S)-PZQ]
systemic levels compared with (R)-PZQ [2]: higher

O=C(C1CCCCC1)N1CC(=O)N2CCc3ccccc3[C@@H]2C1 [(R)-PZQ]
side effects compared with racemic PZQ ([3]; single administration of 20 mg/kg vs 40 mg/kg racemic): fewer side effects | activity compared with 40 mg/kg of racemic PZQ ([3]; single administration of 20 mg/kg): same activity | production of metabolite V (CYP2C9): not detected
